Measurements published in ChEMBL document CHEMBL3507680, “University of Dundee, Gates Library screen for HepG2 cell viability”.

Test: Human HepG2 cell viability assay in 384 well format
Assay type: toxicity, cell-based
Design: dose 125 nL, time 70.5 hour; cytotoxicity at 70.5 h: concentration not given beside the values
Conditions: HepG2 cells, read-out: Inhibition

`N#Cc1ccccc1NC(=O)c1ccc2c(c1)OCO2` showed a cytotoxicity at 70.5 h of -0.874%.
For `O=C1CC(N2CCN(c3ccc(O)cc3)CC2)C(=O)N1Cc1cccs1` (stereo unspecified), the cytotoxicity at 70.5 h was -7.69%.
For `O=c1c2c(ncn1CCO)nc1n2CCC1`, the cytotoxicity at 70.5 h was -5.61%.
`O=C1CC(N2CCN(c3ccc(F)cc3)CC2)C(=O)N1Cc1cccs1` (stereo unspecified) gave a cytotoxicity at 70.5 h of -12.3%.
`O=C1NC2(CCN(C(=O)Cc3ccsc3)CC2)CC1c1ccncc1` (stereo unspecified) showed a cytotoxicity at 70.5 h of -4.21%.
Compound `CN(C)C(=O)NC1COC2(CCN(Cc3nccn3C)CC2)C1` (stereo unspecified) has a cytotoxicity at 70.5 h of 2.06%.
Work on `O=C(c1ccc2[nH]ccc2c1)N1CCn2cnc(COCC3CC3)c2C1` yielded a cytotoxicity at 70.5 h of -4.35%.
Compound `CCC1=N[C@@]2(CC[C@@H]3CN(S(=O)(=O)N(C)C)C[C@@H]32)C(=O)N1CC(C)C` has a cytotoxicity at 70.5 h of -3.81%.
Compound `CCc1ccc(NC(=O)N2C[C@H]3C[C@H](C(=O)NC)[C@@H](C2)O3)cc1` has a cytotoxicity at 70.5 h of 3.53%.
For `CN(C)Cc1nn(C)c2c1CCN(S(=O)(=O)c1cccs1)C2`, the cytotoxicity at 70.5 h was 1.38%.
Compound `CCO[C@@H]1CO[C@@]2(CCCN(C(=O)COc3ccccc3OC)C2)C1` has a cytotoxicity at 70.5 h of -9.81%.
In the case of `Cn1ncc2c1C(COCC1CC1)CN(Cc1nccs1)C2` (stereo unspecified), the cytotoxicity at 70.5 h was 6.16%.
With `CO[C@@H]1CC[C@H]2[C@H]1OCCN2C(=O)c1ccc(C)o1` the cytotoxicity at 70.5 h was 46.9%.
In the case of `Cc1ccsc1C(=O)N1CC(C(=O)NCC2CC2)C2(CCOCC2)C1` (stereo unspecified), the cytotoxicity at 70.5 h was 7.19%.
With `Cc1ccsc1C(=O)N1CC(C(=O)N2CCOCC2)C2(CCOCC2)C1` (stereo unspecified) the cytotoxicity at 70.5 h was 24.8%.
`O=C(c1cscn1)N1C[C@@H]2C[C@@H](c3nnc(C4CC4)o3)O[C@@H]2C1` showed a cytotoxicity at 70.5 h of -8.28%.
Work on `Cc1ncsc1CN1CC[C@H]2C[C@H](c3ccncn3)O[C@@H]2C1` yielded a cytotoxicity at 70.5 h of -12.4%.
`O=C(CC1CC1)N1CCn2cc(Cn3cncn3)nc2C1` gave a cytotoxicity at 70.5 h of -18.5%.
Work on `COCC(=O)N1Cc2cn(C)nc2C(COc2cccnc2)C1` (stereo unspecified) yielded a cytotoxicity at 70.5 h of 9.02%.
In the case of `CCOc1cc(C(=O)n2cccn2)cc(OCC)c1OCC`, the cytotoxicity at 70.5 h was -6.27%.
With `Cc1c(Br)cnn1CC(=O)Nc1ccon1` the cytotoxicity at 70.5 h was -7.55%.
Compound `Cc1cc(NC(=O)Cn2ncc(Br)c2C)no1` has a cytotoxicity at 70.5 h of -2.58%.
With `O=C(c1n[nH]cc1Cl)N1CCSCC1` the cytotoxicity at 70.5 h was -9.46%.
Work on `CCCN1C(=O)c2ccccc2C1OC` (stereo unspecified) yielded a cytotoxicity at 70.5 h of -6.48%.
Work on `CNC(=O)C1CCN(S(C)(=O)=O)CC1` yielded a cytotoxicity at 70.5 h of -10.2%.
`O=C(O)c1cccc2c(Br)cccc12` gave a cytotoxicity at 70.5 h of -0.692%.
`Cc1ccc(CNC(=O)CCC(=O)NCCC(C)C)o1` gave a cytotoxicity at 70.5 h of 18.9%.
`O=C(CCC(=O)NCc1cccc(Br)c1)NCCN1CCCC1` gave a cytotoxicity at 70.5 h of 23.6%.
Compound `CN(C)c1nc2n(c(=O)n1)CCN2C(=O)Nc1ccc(Cl)cc1` has a cytotoxicity at 70.5 h of -6.29%.
Work on `CN(C)c1nc2n(c(=O)n1)CCN2C(=O)Nc1ccc(Cl)c(Cl)c1` yielded a cytotoxicity at 70.5 h of -10.9%.
For `O=C(COCC(=O)N(c1ccccc1)c1ccccc1)N1CCOCC1`, the cytotoxicity at 70.5 h was -5.79%.
`O=C(c1ccnn1COc1ccc(Cl)cc1)N1CCCC1` gave a cytotoxicity at 70.5 h of -1.93%.
Work on `CCNc1nc(N(C)C)nc(-n2cnc(SC)n2)n1` yielded a cytotoxicity at 70.5 h of -12%.
With `CSc1ncn(-c2nc(NC3CC3)nc(N(C)C)n2)n1` the cytotoxicity at 70.5 h was -25.9%.
Compound `CCN(c1ccccc1C(=O)O)S(=O)(=O)c1cccc2cccnc12` has a cytotoxicity at 70.5 h of 1.89%.
For `CCc1oc2ccc(NS(=O)(=O)CC)cc2c1C(=O)OC`, the cytotoxicity at 70.5 h was -5.49%.
Compound `Cc1cc(N2CCC(Cc3cccnc3)CC2)ncn1` has a cytotoxicity at 70.5 h of 23.3%.
`Cc1cc(N2CCC(Cc3ncccn3)C2)ncn1` (stereo unspecified) gave a cytotoxicity at 70.5 h of -6.02%.
For `NC(=O)c1cn[nH]c1C1CCCN1C(=O)c1ccccn1` (stereo unspecified), the cytotoxicity at 70.5 h was -4.23%.
Compound `O=C(CO)N1CCCC(c2cc(C(F)(F)F)[nH]n2)C1` (stereo unspecified) has a cytotoxicity at 70.5 h of -2.3%.
`Cc1n[nH]c(C)c1S(=O)(=O)N1CCC(Oc2ccccc2F)CC1` gave a cytotoxicity at 70.5 h of -7.37%.
`Nc1cc(-c2cncnc2C2CCN(C(=O)c3ccccc3)C2)ccn1` (stereo unspecified) showed a cytotoxicity at 70.5 h of 2.08%.
Compound `O=C(NCC1(O)COCCN(Cc2cccc(O)c2)C1)c1cscn1` (stereo unspecified) has a cytotoxicity at 70.5 h of -7.81%.
Compound `Cc1cc(-c2ccc(=O)n(C3CCN(S(=O)(=O)N(C)C)CC3)n2)c(C)o1` has a cytotoxicity at 70.5 h of 3.38%.
`CCS(=O)(=O)N1CCC(n2nc(-c3cc(C)oc3C)ccc2=O)CC1` showed a cytotoxicity at 70.5 h of 24.5%.
With `CCN1CCCC1CNCc1cc2ccccc2[nH]c1=O` (stereo unspecified) the cytotoxicity at 70.5 h was -5.02%.
For `COc1cccc(-c2nccc(C3CCCN3C)n2)c1` (stereo unspecified), the cytotoxicity at 70.5 h was 26.3%.
For `CN1CCCCC1c1ccc(-n2ccnc2)nc1` (stereo unspecified), the cytotoxicity at 70.5 h was -2.08%.
Work on `Cc1cc(C)nc(C2CCCN2C(=O)c2cnco2)n1` (stereo unspecified) yielded a cytotoxicity at 70.5 h of 33.6%.
In the case of `COCCN1CCCC1c1ccnc(-c2ccccc2)n1` (stereo unspecified), the cytotoxicity at 70.5 h was -4.49%.
With `CCn1cc(S(=O)(=O)N2CCCC3(CC=CNC3=O)C2)cn1` (stereo unspecified) the cytotoxicity at 70.5 h was -0.325%.
`COc1ccccc1C1(O)CCCN(C(=O)c2csc(C(C)=O)c2)C1` (stereo unspecified) showed a cytotoxicity at 70.5 h of -1.27%.
`CC(C)c1nc(O)c2nnn(C[C@H]3CCCN(Cc4ccsc4)C3)c2n1` showed a cytotoxicity at 70.5 h of -1.06%.
For `CCN1CCCC1CNCc1cc2cc(OC)ccc2[nH]c1=O` (stereo unspecified), the cytotoxicity at 70.5 h was -0.0295%.
Work on `COc1cccc(CCC2CCCCN2)c1` (stereo unspecified) yielded a cytotoxicity at 70.5 h of 0.0655%.
With `CC(C)(C)OC(=O)N1CCN(c2cccnc2)CC1C(=O)O` (stereo unspecified) the cytotoxicity at 70.5 h was -0.358%.
